EC50 data for 29 molecules are collected here from patent publication US20250042897A1, “HETEROCYCLIC COMPOUNDS AS TRIGGERING RECEPTOR EXPRESSED ON MYELOID CELLS 2 AGONISTS AND METHODS OF USE” (Vigil Neuroscience, Inc., priority 2021, published 2025).

The structures appear in SMILES notation. pEC50: −log10 of the molar value.

This assay deals with T1, human TREM2 (Homo sapiens, UniProt Q9NZC2).
T1 construct: expressed in transfected cells; host or cells: HEK293T
T1 sequence (Q9NZC2 19-230): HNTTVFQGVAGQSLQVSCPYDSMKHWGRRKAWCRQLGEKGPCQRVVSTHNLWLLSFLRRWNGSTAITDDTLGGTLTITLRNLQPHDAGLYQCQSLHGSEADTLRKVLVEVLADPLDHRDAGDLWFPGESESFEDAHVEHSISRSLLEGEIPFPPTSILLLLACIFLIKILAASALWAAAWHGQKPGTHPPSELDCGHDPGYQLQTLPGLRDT
T1 sequence (O43914 22-113 partner): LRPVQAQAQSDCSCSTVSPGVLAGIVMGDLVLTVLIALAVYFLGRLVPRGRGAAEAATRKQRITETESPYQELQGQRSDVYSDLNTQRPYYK
Nature of the assay: hTREM2 agonist potency by cellular Syk phosphorylation (AlphaLisa) in HEK293T-hTREM2 cells. Format: cell-based. As to conditions: Table D-2; HEK293 cells expressing human TREM2 and DAP12; pSyk AlphaLisa; 45 minutes at room temperature. How it is done: In Vitro Measurement of Triggering Receptor Expressed on Myeloid Cells 2 Activity Using Cellular Phosphorylation of Spleen Tyrosine Kinase (“Syk”) Assays
Measurement of TREM2 agonist potency was done using a HEK cell line expressing human TREM2 and DAP12 (HEK293T-hTREM2 cells). Binding of small molecules to, and activation of, TREM2 increases the phosphorylation of Syk. The resultant levels of Syk phosphorylation are measured using a commercial AlphaLisa reagent kit. To perform the assay, HEK-hTREM2 cells were plated at 14,000 cells per well in a 384 well plate, in 25 μL of complete growth media and incubated at 37° C., 5% CO2 for 20-24 hours.
Prior to the assay, test compounds were diluted in the 384 well plates in assay buffer and allowed to equilibrate for 30 minutes. Growth media was removed from cell plates by inversion on blotting paper, and 25 μL of test articles in assay buffer was added to cells. Cells were incubated for 45 minutes at room temperature. After 45 minutes, assay buffer was removed and 10 μL of lysis buffer was added. Plates were shaken for 20 minutes at 350 RPM at room temperature. After complete lysis, AlphaLisa reagents were added to the lysate, and fluorescence intensity was measured using a Perkin Elmer Envision plate reader. Intensities were used to generate a standard curve, and % activation was calculated. Curve fitting was performed using Prism v9 software, log (agonist) vs response-variable slope (four parameters), and EC50s were calculated from the curve fit.
The results presented in Table D have been generated with the in vitro assay described above. This assay may be used to test any of the compounds described herein to assess and characterize a compound's ability to act as an agonist of TREM2.
Background: Alpha assays give light when donor and acceptor beads are brought close together.
For the molecule `Cc1nc2nc([C@H]3CCO[C@@H](c4cnn(C5CC5)c4)C3)cc(-c3ccc(F)cc3F)c2c(=O)n1C` (single isomer, unassigned) [I-40], the pEC50 – broadly, the negative decadic logarithm of the EC50, by convention in mol/L – is at least 7.30.

`Cc1nc2nc([C@@H]3CCO[C@H](c4cnn(C5CC5)c4)C3)cc(-c3ccc(F)cc3F)c2c(=O)n1C` (single isomer, unassigned) [I-42]: the pEC50 was 5.52 to 6.30.

For the molecule `Cn1ncc2c(-c3ccc(Cl)cc3F)nc(N3C[C@@H](C4CC4)O[C@@H](c4cnn(C5CC5)c4)C3)nc2c1=O` (single isomer, unassigned) [I-183], the pEC50 is at least 7.30.

Regarding `Cn1ncc2c(-c3ccc(Cl)cc3F)nc(N3C[C@@H](c4cnn(C5CC5)c4)O[C@@H](C4CC4)C3)nc2c1=O` (single isomer, unassigned) [I-184], the pEC50 was at least 7.30.

`Cn1ncc2c(-c3ccc(Cl)cc3F)nc(N3CCOC(c4cnn(C5CC5)c4)C3)cc2c1=O` (centres unmarked) [I-45, 5-(4-chloro-2-fluorophenyl)-7-(2-(1-cyclopropyl-1H-pyrazol-4-yl)morpholino)-2-methylpyrido[3,4-d]pyridazin-1 (2H)-one] had a pEC50 of 6.30 to 7.30.

Turning to `Cn1ncc2c(-c3ccc(Cl)cc3F)nc([C@H]3CCO[C@@H](c4cnn(C5CC5)c4)C3)cc2c1=O` [I-48, 5-(4-chloro-2-fluoro-phenyl)-7-[(2R,4S)-2-(1-cyclopropylpyrazol-4-yl)tetrahydropyran-4-yl]-2-methyl-pyrido[3,4-d]pyridazin-1-one], the pEC50 was at least 7.30.

`Cn1ncc2c(-c3ccc(C(F)(F)F)cc3F)nc([C@H]3CCO[C@@H](c4cnn(C5CC5)c4)C3)cc2c1=O` [I-53, 7-[(2R, 4S)-2-(1-cyclopropylpyrazol-4-yl)tetrahydropyran-4-yl]-5-[2-fluoro-4-(trifluoroomethyl)phenyl]-2-methyl-pyrido[3,4-d]pyridazin-1-one] had a pEC50 of 6.30 to 7.30.

`C[C@@H]1CN(c2cc3c(=O)n(C)ncc3c(-c3ccc(F)cc3F)n2)C[C@H](c2cnn(C3CC3)c2)O1` [I-58, 7-[(2S,6R)-2-(1-cyclopropylpyrazol-4-yl)-6-methyl-morpholin-4-yl]-5-(2,4-difluorophenyl)-2-methyl-pyrido[3,4-d]pyridazin-1-one] gave a pEC50 of at least 7.30.

`Cn1ncc2c(-c3ccc(F)cc3F)nc(C3CCO[C@@H](c4cnn(C5CC5)c4)C3)cc2c1=O` (stereo partly drawn) [I-63, 7-[(2R)-2-(1-cyclopropylpyrazol-4-yl)tetrahydropyran-4-yl]-5-(2,4-difluorophenyl)-2-methyl-pyrido[3,4-d]pyridazin-1-one] had a pEC50 of 6.30 to 7.30.

For `Cc1cc2c(-c3ccc(C(F)(F)F)cc3F)nc(N3C[C@@H](C)O[C@@H](c4cnn(C5CC5)c4)C3)cc2c(=O)n1C` [I-79, 7-((2S,6R)-2-(1-cyclopropyl-1H-pyrazol-4-yl)-6-methylmorpholino)-5-(2-fluoro-4-(trifluoromethyl)phenyl)-2,3-dimethyl-2,6-naphthyridin-1 (2H)-one], the pEC50 is at least 7.30.

`Cn1ncc2c(-c3ccc(C(F)(F)F)cc3F)nc(C3CCO[C@@H](c4cnn(C5CC5)c4)C3)nc2c1=O` (stereo partly drawn) [I-84, 2-((2R)-2-(1-cyclopropyl-1H-pyrazol-4-yl)tetrahydro-2H-pyran-4-yl)-4-(2-fluoro-4-(trifluoromethyl)phenyl)-7-methylpyrimido[4,5-d]pyridazin-8 (7H)-one]: the pEC50 is 6.30 to 7.30.

For `Cc1nc2c(-c3ccc(F)cc3F)nc(N3C[C@@H](C)O[C@@H](c4cnn(C5CC5)c4)C3)nc2c(=O)n1C` [I-90, 6-((2S,6R)-2-(1-cyclopropyl-1H-pyrazol-4-yl)-6-methylmorpholino)-8-(2,4-difluorophenyl)-2,3-dimethylpyrimido[5,4-d]pyrimidin-4 (3H)-one], the pEC50 is at least 7.30.

Regarding `Cc1cc2c(-c3ccc(C(F)(F)F)cc3F)nc([C@H]3CCO[C@@H](c4cnn(C5CC5)c4)C3)cc2c(=O)n1C` [I-95, 7-((2R,4S)-2-(1-cyclopropyl-1H-pyrazol-4-yl)tetrahydro-2H-pyran-4-yl)-5-(2-fluoro-4-(trifluoromethyl)phenyl)-2,3-dimethyl-2,6-naphthyridin-1 (2H)-one], the pEC50 is at least 7.30.

In turn, `C[C@@H]1CN(c2cc(-c3ccc(Cl)cc3F)c3cnn(C)c(=O)c3n2)C[C@H](c2cnn(C3CC3)c2)O1` [I-100, 4-(4-chloro-2-fluorophenyl)-2-((2S,6R)-2-(1-cyclopropyl-1H-pyrazol-4-yl)-6-methylmorpholino)-7-methylpyrido[2,3-d]pyridazin-8 (7H)-one] gave a pEC50 of 6.30 to 7.30.

`Cc1nc2c(-c3ccc(F)cc3F)nc([C@H]3CCO[C@@H](c4cnn(C5CC5)c4)C3)nc2c(=O)n1C` [I-105, 6-((2R,4S)-2-(1-cyclopropyl-1H-pyrazol-4-yl)tetrahydro-2H-pyran-4-yl)-8-(2,4-difluorophenyl)-2,3-dimethylpyrimido[5,4-d]pyrimidin-4 (3H)-one]: the pEC50 was 6.30 to 7.30.

On to `Cc1nc2c(-c3ccc(F)cc3F)cc(N3C[C@@H](C)O[C@@H](c4cnn(C5CC5)c4)C3)nc2c(=O)n1C` [I-110, 6-((2S,6R)-2-(1-cyclopropyl-1H-pyrazol-4-yl)-6-methylmorpholino)-8-(2,4-difluorophenyl)-2,3-dimethylpyrido[3,2-d]pyrimidin-4 (3H)-one], for which the pEC50 is at least 7.30.

For the molecule `O=c1c2nc(C3CCOC(c4cnn(C5CC5)c4)C3)nc(-c3ccc(C(F)(F)F)cc3F)c2cnn1C1CC1` (centres unmarked) [I-115], the pEC50 is 5.52 to 6.30.

For the molecule `Cc1nc2c(-c3ccc(F)cc3F)cc([C@H]3CCO[C@@H](c4cnn(C5CC5)c4)C3)nc2c(=O)n1C` [I-120, 6-((2R,4S)-2-(1-cyclopropyl-1H-pyrazol-4-yl)tetrahydro-2H-pyran-4-yl)-8-(2,4-difluorophenyl)-2,3-dimethylpyrido[3,2-d]pyrimidin-4 (3H)-one], the pEC50 is 6.30 to 7.30.

`Cc1nc2c(-c3ccc(C(F)(F)F)cc3F)nc([C@@H]3CCO[C@@H](c4cnn(C5CC5)c4)C3)nc2c(=O)n1C` [I-132, 6-[(2R,4R)-2-(1-cyclopropylpyrazol-4-yl)tetrahydropyran-4-yl]-8-[2-fluoro-4-(trifluoromethyl)phenyl]-2,3-dimethyl-pyrimido[5,4-d]pyrimidin-4-one] gave a pEC50 of 6.30 to 7.30.

In the case of `Cc1nc2c(-c3ccc(C(F)(F)F)cc3F)nc([C@H]3CCO[C@@H](c4cnn(C5CC5)c4)C3)nc2c(=O)n1C` [I-134, 6-[(2R,4S)-2-(1-cyclopropylpyrazol-4-yl)tetrahydropyran-4-yl]-8-[2-fluoro-4-(trifluoromethyl)phenyl]-2,3-dimethyl-pyrimido[5,4-d]pyrimidin-4-one], the negative logarithm of the EC50 (pEC50) was at least 7.30.

Take `Cc1nc2c(-c3ccc(C(F)(F)F)cc3F)nc(N3C[C@@H](C)O[C@@H](c4cnn(C5CC5)c4)C3)nc2c(=O)n1C` [I-136, 6-[(2S,6R)-2-(1-cyclopropylpyrazol-4-yl)-6-methyl-morpholin-4-yl]-8-[2-fluoro-4-(trifluoromethyl)phenyl]-2,3-dimethyl-pyrimido[5,4-d]pyrimidin-4-one]: the pEC50 is at least 7.30.

Consider `C[C@@H]1CN(c2nc(-c3ccc(F)cc3F)c3cnn(C)c(=O)c3n2)C[C@H](c2cnn(C3CC3)c2)O1` [I-141, 2-[(2S, 6R)-2-(1-cyclopropylpyrazol-4-yl)-6-methyl-morpholin-4-yl]-4-(2,4-difluorophenyl)-7-methyl-pyrimido[4,5-d]pyridazin-8-one], for which the pEC50 is at least 7.30.

The molecule `Cn1ncc2c(-c3ccc(F)cc3F)nc(C3CCO[C@@H](c4cnn(C5CC5)c4)C3)nc2c1=O` (stereo partly drawn) [I-146, 2-[(2R)-2-(1-cyclopropylpyrazol-4-yl)tetrahydropyran-4-yl]-4-(2,4-difluorophenyl)-7-methyl-pyrimido[4,5-d]pyridazin-8-one] gave a pEC50 of 6.30 to 7.30.

Turning to `Cc1nc2c(-c3ccc(Cl)cc3F)nc(N3C[C@@H](C)O[C@@H](c4cnn(C5CC5)c4)C3)nc2c(=O)n1C` [I-152, 8-(4-chloro-2-fluoro-phenyl)-6-[(2S,6R)-2-(1-cyclopropylpyrazol-4-yl)-6-methyl-morpholin-4-yl]-2,3-dimethyl-pyrimido[5,4-d]pyrimidin-4-one], the pEC50 is at least 7.30.

Take `Cn1ncc2c(-c3ccc(F)cc3F)nc(C3CCO[C@@H](c4cn(C5CC5)[n+](C)c4)C3)nc2c1=O` (stereo partly drawn) [I-157, 2-[(2R)-2-(1-cyclopropyl-2-methyl-pyrazol-2-ium-4-yl)tetrahydropyran-4-yl]-4-(2,4-difluorophenyl)-7-methyl-pyrimido[4,5-d]pyridazin-8-one]: the pEC50 was 5.52 to 6.30.

As to `C[C@@H]1CN(c2nc(-c3ccc(F)cc3F)c3ncn(C)c(=O)c3n2)C[C@H](c2cnn(C3CC3)c2)O1` [I-163, 6-((2S,6R)-2-(1-cyclopropyl-1H-pyrazol-4-yl)-6-methylmorpholino)-8-(2,4-difluorophenyl)-3-methylpyrimido[5,4-d]pyrimidin-4 (3H)-one], the pEC50 was at least 7.30.

For the molecule `Cc1nc2c(-c3ccc(F)cc3F)nc([C@@H]3CCO[C@@H](c4cnn(C5CC5)c4)C3)nc2c(=O)n1C` [I-168], the pEC50 is 6.30 to 7.30.

As for `CC1Nc2c(nc([C@H]3CCO[C@@H](c4cnn(C5CC5)c4)C3)nc2-c2ccc(F)cc2F)C(=O)N1C` (some centres unmarked) [I-173], the pEC50 is 5.52 to 6.30.

On to `COCn1cc([C@H]2CN(c3nc(-c4ccc(Cl)cc4F)c4cnn(C)c(=O)c4n3)C[C@@H](C)O2)cn1` [I-178], for which the pEC50 was at least 7.30.
